Measured values: ChEMBL document CHEMBL3885881, “DrugMatrix”

Species on record: Rattus norvegicus
Experiment: DrugMatrix - Regimen: Daily Repeat
Type: toxicity, organism-based, Sprague-Dawley
Design: regimen Daily Repeat, gender Male, age 6-8 weeks
Settings: in vivo, iv, vehicle 100 % SALINE; for ABSOLUTE BASOPHIL / ABSOLUTE EOSINOPHIL / ABSOLUTE LYMPHOCYTE / ABSOLUTE MONOCYTE / ABSOLUTE SEGMENTED NEUTROPHIL / BASOPHIL / EOSINOPHIL / ERYTHROCYTE COUNT / HEMATOCRIT / HEMOGLOBIN / LEUKOCYTE COUNT / LYMPHOCYTE / MEAN CORPUSCULAR HEMOGLOBIN / MEAN CORPUSCULAR HEMOGLOBIN CONCENTRATION / MEAN CORPUSCULAR VOLUME / MONOCYTE / NEUTROPHIL / NUCLEATED RED BLOOD CELLS / PLATELET COUNT: tissue Blood; for ALANINE AMINOTRANSFERASE / ALBUMIN / ALKALINE PHOSPHATASE / ASPARTATE AMINOTRANSFERASE / BLOOD UREA NITROGEN / CARBON DIOXIDE / CHLORIDE / CHOLESTEROL / CREATINE PHOSPHOKINASE / CREATININE / GLUCOSE / LACTATE DEHYDROGENASE / LIPASE / PHOSPHORUS / POTASSIUM / SODIUM / TOTAL BILIRUBIN / TOTAL PROTEIN / URIC ACID: tissue Plasma
[1] = 0 mg/kg, 72 h, dose level Control, time 3 day
[2] = 0 mg/kg, 120 h, dose level Control, time 5 day
[3] = 7 mg/kg, 72 h, dose level Low, time 3 day

Structure (SMILES): CC(=O)N[C@@H]1[C@H](Oc2c3cc4cc2Oc2ccc(cc2Cl)[C@@H](O[C@@H]2O[C@@H](CO)[C@@H](O)[C@H](O)[C@@H]2NC(C)=O)[C@@H]2NC(=O)[C@H](NC(=O)[C@@H]4NC(=O)[C@H]4NC(=O)[C@@H](Cc5ccc(c(Cl)c5)O3)NC(=O)[C@H](N)c3ccc(O)c(c3)Oc3cc(O)cc4c3)c3ccc(O)c(c3)-c3c(O[C@H]4O[C@H](CO)[C@@H](O)[C@@H](O)[C@@H]4O)cc(O)cc3[C@@H](C(=O)O)NC2=O)O[C@@H](CO)[C@@H](O)[C@@H]1O
- ABSOLUTE BASOPHIL [1]: 0 CELLS/uL
- ABSOLUTE EOSINOPHIL [1]: 193.5 CELLS/uL
- ABSOLUTE LYMPHOCYTE [1]: 15717.5 CELLS/uL
- ABSOLUTE MONOCYTE [1]: 389.33 CELLS/uL
- ABSOLUTE SEGMENTED NEUTROPHIL [1]: 1883 CELLS/uL
- BASOPHIL [1]: 0%
- EOSINOPHIL [1]: 1.17%
- ERYTHROCYTE COUNT [1]: 5.68 x10E6/uL
- HEMATOCRIT [1]: 35.83%
- HEMOGLOBIN [1]: 13.48 G/DL
- LEUKOCYTE COUNT [1]: 18.18 x10E3/uL
- LYMPHOCYTE [1]: 86.67%
- MEAN CORPUSCULAR HEMOGLOBIN [1]: 23.8 pg
- MEAN CORPUSCULAR HEMOGLOBIN CONCENTRATION [1]: 37.68 G/DL
- MEAN CORPUSCULAR VOLUME [1]: 63.27 fL
- MONOCYTE [1]: 2.17%
- NEUTROPHIL [1]: 10%
- NUCLEATED RED BLOOD CELLS [1]: 0 /100WBC
- PLATELET COUNT [1]: 1186.33 x10E3/uL
- ALANINE AMINOTRANSFERASE [1]: 68.5 u/L
- ALBUMIN [1]: 4.37 G/DL
- ALKALINE PHOSPHATASE [1]: 396.33 u/L
- ASPARTATE AMINOTRANSFERASE [1]: 92.5 u/L
- BLOOD UREA NITROGEN [1]: 18 mg/dL
- CARBON DIOXIDE [1]: 24.33 mmol/L
- CHLORIDE [1]: 102.4 MEQ/L
- CHOLESTEROL [1]: 67.17 mg/dL
- CREATINE PHOSPHOKINASE [1]: 378.67 u/L
- CREATININE [1]: 0.19 mg/dL
- GLUCOSE [1]: 178.33 mg/dL
- LACTATE DEHYDROGENASE [1]: 245.17 u/L
- LIPASE [1]: 9.2 u/L
- PHOSPHORUS [1]: 12.37 mg/dL
- POTASSIUM [1]: 6.48 MEQ/L
- SODIUM [1]: 143.28 MEQ/L
- TOTAL BILIRUBIN [1]: 0.23 mg/dL
- TOTAL PROTEIN [1]: 5.65 G/DL
- URIC ACID [1]: 1.6 mg/dL
- ABSOLUTE BASOPHIL [2]: 0 CELLS/uL
- ABSOLUTE EOSINOPHIL [2]: 27.5 CELLS/uL
- ABSOLUTE LYMPHOCYTE [2]: 13593.17 CELLS/uL
- ABSOLUTE MONOCYTE [2]: 576 CELLS/uL
- ABSOLUTE SEGMENTED NEUTROPHIL [2]: 1836.67 CELLS/uL
- BASOPHIL [2]: 0%
- EOSINOPHIL [2]: 0.17%
- ERYTHROCYTE COUNT [2]: 5.99 x10E6/uL
- HEMATOCRIT [2]: 37.42%
- HEMOGLOBIN [2]: 13.78 G/DL
- LEUKOCYTE COUNT [2]: 16.03 x10E3/uL
- LYMPHOCYTE [2]: 85.17%
- MEAN CORPUSCULAR HEMOGLOBIN [2]: 23.08 pg
- MEAN CORPUSCULAR HEMOGLOBIN CONCENTRATION [2]: 36.83 G/DL
- MEAN CORPUSCULAR VOLUME [2]: 62.6 fL
- MONOCYTE [2]: 3.5%
- NEUTROPHIL [2]: 11.17%
- NUCLEATED RED BLOOD CELLS [2]: 0 /100WBC
- PLATELET COUNT [2]: 1352.5 x10E3/uL
- ALANINE AMINOTRANSFERASE [2]: 49.83 u/L
- ALBUMIN [2]: 4.25 G/DL
- ALKALINE PHOSPHATASE [2]: 331.33 u/L
- ASPARTATE AMINOTRANSFERASE [2]: 86.17 u/L
- BLOOD UREA NITROGEN [2]: 19.5 mg/dL
- CARBON DIOXIDE [2]: 26.67 mmol/L
- CHLORIDE [2]: 103 MEQ/L
- CHOLESTEROL [2]: 67.5 mg/dL
- CREATINE PHOSPHOKINASE [2]: 346.17 u/L
- CREATININE [2]: 0.22 mg/dL
- GLUCOSE [2]: 170.67 mg/dL
- LACTATE DEHYDROGENASE [2]: 405.5 u/L
- LIPASE [2]: 8.83 u/L
- PHOSPHORUS [2]: 11.3 mg/dL
- POTASSIUM [2]: 6.06 MEQ/L
- SODIUM [2]: 143.4 MEQ/L
- TOTAL BILIRUBIN [2]: 0.17 mg/dL
- TOTAL PROTEIN [2]: 6.22 G/DL
- URIC ACID [2]: 1.63 mg/dL
- ABSOLUTE BASOPHIL [3]: 0 CELLS/uL
- ABSOLUTE EOSINOPHIL [3]: 340.67 CELLS/uL
- ABSOLUTE LYMPHOCYTE [3]: 16096 CELLS/uL
- ABSOLUTE MONOCYTE [3]: 460.67 CELLS/uL
- ABSOLUTE SEGMENTED NEUTROPHIL [3]: 1602.67 CELLS/uL
- BASOPHIL [3]: 0%
- EOSINOPHIL [3]: 1.67%
- ERYTHROCYTE COUNT [3]: 5.86 x10E6/uL
- HEMATOCRIT [3]: 37.6%
- HEMOGLOBIN [3]: 14.23 G/DL
- LEUKOCYTE COUNT [3]: 18.5 x10E3/uL
- LYMPHOCYTE [3]: 87%
- MEAN CORPUSCULAR HEMOGLOBIN [3]: 24.27 pg
- MEAN CORPUSCULAR HEMOGLOBIN CONCENTRATION [3]: 37.87 G/DL
- MEAN CORPUSCULAR VOLUME [3]: 64.13 fL
- MONOCYTE [3]: 2.67%
- NEUTROPHIL [3]: 8.67%
- NUCLEATED RED BLOOD CELLS [3]: 0 /100WBC
- PLATELET COUNT [3]: 1212.33 x10E3/uL
- ALANINE AMINOTRANSFERASE [3]: 48 u/L
- ALBUMIN [3]: 5.03 G/DL
- ALKALINE PHOSPHATASE [3]: 341.33 u/L
- ASPARTATE AMINOTRANSFERASE [3]: 90.67 u/L
- BLOOD UREA NITROGEN [3]: 21.33 mg/dL
- CARBON DIOXIDE [3]: 21.67 mmol/L
- CHLORIDE [3]: 98.33 MEQ/L
- CHOLESTEROL [3]: 73.33 mg/dL
- CREATINE PHOSPHOKINASE [3]: 336 u/L
- CREATININE [3]: 0.27 mg/dL
- GLUCOSE [3]: 149 mg/dL
- LACTATE DEHYDROGENASE [3]: 410.67 u/L
- LIPASE [3]: 10 u/L
- PHOSPHORUS [3]: 11.57 mg/dL
- POTASSIUM [3]: 7.21 MEQ/L
- SODIUM [3]: 141.2 MEQ/L
- TOTAL BILIRUBIN [3]: 0.27 mg/dL
- TOTAL PROTEIN [3]: 6.07 G/DL
- URIC ACID [3]: 2.23 mg/dL
